Source: PubChem BioAssay AID1963443 (Molecular Pharmacology Branch, DTP, NCI, 2024)

System: MDA-MB-231 complex spheroids, growth inhibition
Test: Anticancer human tumor MDA-MB-231 cell line growth inhibition [Asc];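 note: spheroids exposed to compounds for 7 days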
Details: for IC50: curve of first compound; for viability, T/C: stronger effect = lower value
How it was run: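 Tumor cells were grown as complex spheroids with human endothelial cells (HUVEC) and human mesenchymal stem cells as stroma. Agents were tested alone and in combination, in half-log steps down from the clinical Cmax, or from 10 microM where Cmax was unknown.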

## C=CC(=O)N1CCN(c2nc(=O)n(-c3c(C)ccnc3C(C)C)c3nc(-c4c(O)cccc4F)c(F)cc23)C(C)C1 (stereo not given) + Cc1c(S(C)(=O)=O)c(-c2cc(F)cc(N3CCN(c4ccc(NS(=O)(=O)c5ccc(NC(CCN6CCC(C(=O)OCCCP(=O)(O)O)CC6)CSc6ccccc6)c(S(=O)(=O)C(F)(F)F)c5)cc4)CC3)c2)c(-c2ccc(Cl)cc2)n1C(C)C
Second compound 0.1 µM
  IC50: > 10 µM
Second compound 0.316 µM
  IC50: > 10 µM
Second compound 1 µM
  IC50: > 10 µM
Second compound 3.16 µM
  IC50: > 10 µM
Second compound 10 µM
  IC50: > 10 µM
Second compound 0.1 µM, first compound 0.0316 µM
  viability, T/C: 99.8%
Second compound 0.1 µM, first compound 0.1 µM
  viability, T/C: 94.4%
Second compound 0.1 µM, first compound 0.316 µM
  viability, T/C: 96.7%
Second compound 0.1 µM, first compound 1 µM
  viability, T/C: 102%
Second compound 0.1 µM, first compound 3.16 µM
  viability, T/C: 105%
Second compound 0.1 µM, first compound 10 µM
  viability, T/C: 98.4%
Second compound 0.316 µM, first compound 0.0316 µM
  viability, T/C: 106%
Second compound 0.316 µM, first compound 0.1 µM
  viability, T/C: 112%
Second compound 0.316 µM, first compound 0.316 µM
  viability, T/C: 111%
Second compound 0.316 µM, first compound 1 µM
  viability, T/C: 117%
Second compound 0.316 µM, first compound 3.16 µM
  viability, T/C: 116%
Second compound 0.316 µM, first compound 10 µM
  viability, T/C: 116%
Second compound 1 µM, first compound 0.0316 µM
  viability, T/C: 108%
Second compound 1 µM, first compound 0.1 µM
  viability, T/C: 106%
Second compound 1 µM, first compound 0.316 µM
  viability, T/C: 100%
Second compound 1 µM, first compound 1 µM
  viability, T/C: 111%
Second compound 1 µM, first compound 3.16 µM
  viability, T/C: 109%
Second compound 1 µM, first compound 10 µM
  viability, T/C: 96.6%
Second compound 3.16 µM, first compound 0.0316 µM
  viability, T/C: 104%
Second compound 3.16 µM, first compound 0.1 µM
  viability, T/C: 96.8%
Second compound 3.16 µM, first compound 0.316 µM
  viability, T/C: 89.1%
Second compound 3.16 µM, first compound 1 µM
  viability, T/C: 97.5%
Second compound 3.16 µM, first compound 3.16 µM
  viability, T/C: 105%
Second compound 3.16 µM, first compound 10 µM
  viability, T/C: 91.2%
Second compound 10 µM, first compound 0.0316 µM
  viability, T/C: 96.6%
Second compound 10 µM, first compound 0.1 µM
  viability, T/C: 93.7%
Second compound 10 µM, first compound 0.316 µM
  viability, T/C: 93.3%
Second compound 10 µM, first compound 1 µM
  viability, T/C: 96.6%
Second compound 10 µM, first compound 3.16 µM
  viability, T/C: 97.1%
Second compound 10 µM, first compound 10 µM
  viability, T/C: 83.4%

## NC(=O)C(=Cn1cnc(-c2cc(C(F)(F)F)cc(C(F)(F)F)c2)n1)c1cncnc1 + Cc1c(S(C)(=O)=O)c(-c2cc(F)cc(N3CCN(c4ccc(NS(=O)(=O)c5ccc(NC(CCN6CCC(C(=O)OCCCP(=O)(O)O)CC6)CSc6ccccc6)c(S(=O)(=O)C(F)(F)F)c5)cc4)CC3)c2)c(-c2ccc(Cl)cc2)n1C(C)C
Second compound 0.1 µM
  IC50: 0.0634 µM
Second compound 0.316 µM
  IC50: 0.0565 µM
Second compound 1 µM
  IC50: 0.0508 µM
Second compound 3.16 µM
  IC50: 0.0388 µM
Second compound 10 µM
  IC50: 0.0433 µM
Second compound 0.1 µM, first compound 0.000949 µM
  viability, T/C: 100%
Second compound 0.1 µM, first compound 0.003 µM
  viability, T/C: 101%
Second compound 0.1 µM, first compound 0.00949 µM
  viability, T/C: 86.3%
Second compound 0.1 µM, first compound 0.03 µM
  viability, T/C: 62.6%
Second compound 0.1 µM, first compound 0.0949 µM
  viability, T/C: 43.7%
Second compound 0.1 µM, first compound 0.3 µM
  viability, T/C: 6.26%
Second compound 0.316 µM, first compound 0.000949 µM
  viability, T/C: 111%
Second compound 0.316 µM, first compound 0.003 µM
  viability, T/C: 103%
Second compound 0.316 µM, first compound 0.00949 µM
  viability, T/C: 89.8%
Second compound 0.316 µM, first compound 0.03 µM
  viability, T/C: 64.9%
Second compound 0.316 µM, first compound 0.0949 µM
  viability, T/C: 37.4%
Second compound 0.316 µM, first compound 0.3 µM
  viability, T/C: 4.18%
Second compound 1 µM, first compound 0.000949 µM
  viability, T/C: 104%
Second compound 1 µM, first compound 0.003 µM
  viability, T/C: 103%
Second compound 1 µM, first compound 0.00949 µM
  viability, T/C: 88.5%
Second compound 1 µM, first compound 0.03 µM
  viability, T/C: 67.4%
Second compound 1 µM, first compound 0.0949 µM
  viability, T/C: 30.2%
Second compound 1 µM, first compound 0.3 µM
  viability, T/C: 2.94%
Second compound 3.16 µM, first compound 0.000949 µM
  viability, T/C: 98.1%
Second compound 3.16 µM, first compound 0.003 µM
  viability, T/C: 93.7%
Second compound 3.16 µM, first compound 0.00949 µM
  viability, T/C: 84.4%
Second compound 3.16 µM, first compound 0.03 µM
  viability, T/C: 60%
Second compound 3.16 µM, first compound 0.0949 µM
  viability, T/C: 19.2%
Second compound 3.16 µM, first compound 0.3 µM
  viability, T/C: 2.31%
Second compound 10 µM, first compound 0.000949 µM
  viability, T/C: 105%
Second compound 10 µM, first compound 0.003 µM
  viability, T/C: 103%
Second compound 10 µM, first compound 0.00949 µM
  viability, T/C: 97.3%
Second compound 10 µM, first compound 0.03 µM
  viability, T/C: 68%
Second compound 10 µM, first compound 0.0949 µM
  viability, T/C: 12.1%
Second compound 10 µM, first compound 0.3 µM
  viability, T/C: 0.73%
